Measurements: patent US7622551B2, “Leukocyte stimulating peptides” (POSCO, priority 2004, dated 2009)
Where no end group is shown, it is not given here.

Key:
[1] = tested on: differentiated HL60 cells; experiment: [Ca2+]i increase in fura-2 loaded dHL60 cells; assay type: cell-based, human; settings: for [Ca^2+]i: differentiated HL60 cells, fura-2, 1 μM of peptide; for Concentration of maximal activity, [Ca^2+]i increase: data not shown
Procedure: (§1) U937 (human histiocytic lymphoma cells), HL60 (human promyelocytic leukemia cells), Raw 264.7 (mouse macrophage), Jurkat (human acute T cell leukemia), PC12 (rat adrenal pheochromocytoma cells), 3Y1 (Rat embryonic fibroblasts), 3T3L1 (preadipocytes), and NCI-H292 (human mucoepidermoid pulmonary carcinoma cells) were obtained from the American Type Culture Collection (Rockville, Md.) and maintained as recommended. FPR- or FPRL1 expressing RBL-2H3 cells were cultured as described previously (He et al. J. Immunol. 2000. 165: 4598-4605). Cells were maintained at about 1×10^6 cells/ml under standard incubator conditions (humidified atmosphere, 95% air, 5% CO2, at 37° C.). HL60 cells were induced to differentiate into the granulocyte phenotype by adding dimethylsulfoxide (DMSO) (final concentration 1.25%, v/v) for 4 days to the culture medium, as described previously (Itoh et al. Blood. 1998. 92: 1432-1441).
(§2) The level of [Ca^2+]i was determined using Grynkiewicz's method using fura-2/AM (Grynkiewicz et al. J. Biol. Chem. 1985. 260: 3440-3550). Briefly, prepared cells were incubated with 3 μM of fura-2/AM at 37° C. for 50 min in serum-free RPMI 1640 medium under continuous stirring. 2×10^6 cells were aliquoted for each assay in Ca^2+ free Locke's solution (154 mM NaCl, 5.6 mM KCl, 1.2 mM MgCl2, 5 mM HEPES, pH 7.3, 10 mM glucose, and 0.2 mM EGTA). Fluorescence changes were measured at the dual excitation wavelength of 340 nm and 380 nm, and the calculated fluorescence ratio was translated into [Ca^2+]i.

[2] = tested on: differentiated HL60 cells; experiment: Arachidonic acid (AA) release in [3H]AA-labeled dHL60 cells; assay type: cell-based, human; settings: for Folds of increase (% of total), arachidonic acid release: differentiated HL60 cells, 10 μM of peptide; for Inhibition of AA release induced by P14, P18, P21, P24 / AA release stimulating activity (in words): dHL60 cells; for Inhibition of AA release induced by P14, P18, P21, P24: 1 μM peptide, MAFP, AACOCF3, BEL at 10 μM; for AA release stimulating activity (in words): 10 μM
Procedure: as §1
For the initial screening of the PS-SPCLs, we measured the AA release stimulating activity of each peptide pool. Cultured dHL60 cells (10^7 cells/ml) were pre-labeled with 0.5 μCi/ml of (^3H)-AA in RPMI 1640 medium containing 10% FBS for 90 min at 37° C. in a humidified incubator supplied with 95% air and 5% CO2, as described previously (Bae et al. J. Immunol. 2000. 164: 4089-4096). The labeled cells were then washed twice with serum-free RPMI 1640 and incubated in RPMI 1640 medium containing 0.1% fatty acid-free BSA for 15 min at 37° C. After discarding the medium, the cells were stimulated with various concentrations of peptide for the indicated times. Radioactivity in the medium and of collected cells was determined with a liquid scintillation counter. When investigating the effects of inhibitors, cells were preincubated with the indicated concentrations of each inhibitor or vehicle for 15 min prior to stimulation.

[3] = tested on: human neutrophils; experiment: Superoxide generation (cytochrome c reduction) in human neutrophils; assay type: cell-based
Procedure: Peripheral blood leukocyte concentrates were donated by the Ulsan Red Cross Blood Center (Ulsan, Korea). PBMCs were separated on a Histopaque-1077 gradient. After two washings with HBSS without Ca^2+ and Mg^2+, the PBMCs were suspended in 10% FBS containing RPMI and incubated for 60 min at 37° C. to let the monocytes attach to the culture dish. Cells were washed 5 times with warmed RPMI medium to remove lymphocytes, and then the attached monocytes were collected, as described previously (Bae et al. J. Leukoc. Biol. 1999. 65: 241-248). Human neutrophils were isolated according to standard procedures; i.e., dextran sedimentation, hypotonic lysis of erythrocytes, and using a medium lymphocyte separation gradient, as described previously (Seo et al. J. Immunol. 1997. 158: 1895-1901). Isolated human leukocytes were then used promptly.
We determined superoxide anion generation by measuring cytochrome c reduction using a microtiter 96 well plate ELISA reader (Bio-Tekinstruments, EL312e, Winooski, Vt.) as described previously (Bae et al. Blood. 2001. 97: 2854-2862). Human neutrophils (1×10^6 cells/100 μl of RPMI 1640 medium per well of a 96-well plate) were preincubated with 50 μM of cytochrome c at 37° C. for 1 min and then incubated with the indicated peptide concentrations. Superoxide generation was determined from change in light absorption at 550 nm over 5 minutes at 1 min intervals.

[4] = tested on: undifferentiated HL60 cells; experiment: [Ca2+]i increase in undifferentiated HL60 cells; assay type: cell-based, human; settings: peptides 10 μM (FIG. 8)
Procedure: as §1, §2

[5] = tested on: human monocytes; experiment: Chemotaxis assay (modified Boyden chamber), monocytes; assay type: cell-based; settings: FIG. 6B; control peptide at concentrations less than 10 μM
Procedure: FIGS. 6A and 6B show chemotactic effect of peptides. Assays were performed using a modified Boyden chamber assay, as described in the Examples. Isolated human neutrophils (A) or monocytes (B) (1×10^6 cells/ml in serum free RPMI) were added to the upper wells of a 96-well chemotaxis chamber and migration across a 3 μm pore size (5 μm for monocytes) polycarbonate membrane was assessed after 2 hrs incubation at 37° C. The numbers of migrated cells were determined by counting them in a high power field (400×). Results are presented as means±S.E. of three independent experiments each performed in duplicate.
Chemotaxis assays were performed using multiwell chambers (Neuroprobe Inc., Gaithersburg, Md.) (Bae et al. Blood. 2001. 97: 2854-2862). Briefly, prepared human monocytes were suspended in RPMI at a concentration of 1×10^6 cells/ml, and 25 μl of the suspension was then placed onto the upper well of a chamber separated by a 5 μm polyhydrocarbon filter (3 μm pores size not polyvinylpyrrolidone coated, as is needed for neutrophils) from peptides or N-formyl-methionyl-leucyl-phenylalanine (fMLF) in the lower well. After incubation for 2 hours (90 minutes for neutrophils) at 37° C., non-migrated cells were removed by scraping, and cells that migrated across the filter were dehydrated, fixed, and stained with hematoxylin (Sigma, St. Louis, Mo.). Stained cells were counted in five randomly chosen high power fields (HPF) (400×) (Bae et al. Blood. 2001. 97: 2854-2862).

| Compound | [Ca^2+]i [1] | Folds of increase (% of total), arachidonic acid release [2] | AA release stimulating activity (in words) [2] | other results |
| --- | --- | --- | --- | --- |
| KKYYKM-NH2 [Peptide P9] | 85 ± 15.8 nM | 1.49 ± 0.268 folds |  |  |
| CSCC[C@H](NC=O)C(=O)N[C@@H](CC(C)C)C(=O)N[C@@H](Cc1ccccc1)C(=O)O [fMLF, N-formyl-methionyl-leucyl-phenylalanine, reference compound] |  |  |  | Superoxide production ([3]; 1 μM of peptide, cytochrome c reduction): 26.5 ± 1.32 nmole/10^6 cells; [Ca^2+]i increase in undifferentiated HL60 cells [4]: did not affect |
| MKYHKM-NH2 [Peptide P19] | 13 ± 3.0 nM | 1.68 ± 0.221 folds |  |  |
| KKHYVM-NH2 [Peptide P5] | 34 ± 9.5 nM | 1.68 ± 0.390 folds |  |  |
| KKHYPM-NH2 [Peptide P4] | 14 ± 4.1 nM | 1.41 ± 0.247 folds |  |  |
| KKYHVM-NH2 [Peptide P8] | 31 ± 3.5 nM | 1.30 ± 0.170 folds |  |  |
| Nc1ncnc2c1ncn2[C@@H]1O[C@H](COP(=O)(O)OP(=O)(O)OP(=O)(O)O)[C@@H](O)[C@H]1O [ATP, reference compound] |  |  |  | [Ca^2+]i increase (in words) ([1]; dHL60 cells, 500 μM of ATP (FIG. 4)): stimulated; Effect of PTX on agonist-induced [Ca^2+]i rise ([1]; dHL60 cells, PTX 150 ng/ml for 20 hr): not inhibited |
| CCCCC/C=C\C/C=C\C/C=C\C/C=C\CCCC(=O)C(F)(F)F [AACOCF3, reference compound] |  |  |  | Inhibition of AA release induced by P14, P18, P21, P24 [2]: almost completely prevented |
| RKYHKM-NH2 [Peptide P13] | 10 ± 4.2 nM | 1.47 ± 0.220 folds |  |  |
| RKYYPM-NH2 [Peptide P16] | 135 ± 21.4 nM | 2.57 ± 0.450 folds | most potent | Concentration of maximal activity, [Ca^2+]i increase ([1]; dHL60 cells): approximately 3 μM |
| KKHHVM-NH2 [Peptide P2] | 0 nM | 1.23 ± 0.153 folds |  |  |
| KKYYVM-NH2 [Peptide P11] | 158 ± 25.3 nM | 2.49 ± 0.023 folds | most potent | Concentration of maximal activity, [Ca^2+]i increase ([1]; dHL60 cells): approximately 3 μM |
| KKHYYM-NH2 [Peptide P6] | 50 ± 11.7 nM | 1.52 ± 0.296 folds |  |  |
| CCCCC[C@H](O)/C=C/C=C\C=C\C=C\[C@@H](O)[C@@H](O)CCCC(=O)O [lipoxin A4, reference compound] |  |  |  | [Ca^2+]i increase in undifferentiated HL60 cells [4]: did not affect |
| KKYYPM-NH2 [Peptide P10] | 152 ± 28.7 nM | 2.27 ± 0.199 folds | most potent | Concentration of maximal activity, [Ca^2+]i increase ([1]; dHL60 cells): approximately 3 μM |
| RKYYKM-NH2 [Peptide P15] | 77 ± 12.1 nM | 1.71 ± 0.214 folds |  |  |
| MKYHVM-NH2 [Peptide P20] | 155 ± 16.3 nM | 2.55 ± 0.271 folds | most potent |  |
| MKYYPM-NH2 [Peptide P22] | 168 ± 21.6 nM | 2.95 ± 0.668 folds | most potent | Concentration of maximal activity, [Ca^2+]i increase ([1]; dHL60 cells): approximately 3 μM |
| KKHYKM-NH2 [Peptide P3] | 8 ± 3.2 nM | 1.45 ± 0.306 folds |  |  |
| KKHHKM-NH2 [Peptide P1] | 0 nM | 1.25 ± 0.168 folds |  | [Ca^2+]i increase (in words) ([1]; dHL60 cells, 1 μM): did not affect |
| CC(=O)OCOC(=O)CN(CC(=O)OCOC(C)=O)c1ccccc1OCCOc1ccccc1N(CC(=O)OCOC(C)=O)CC(=O)OCOC(C)=O [BAPTA/AM, reference compound] |  |  |  | Inhibition of AA release induced by P14, P18, P21, P24 [2]: inhibited |
| KKYHKM-NH2 [Peptide P7] | 0 nM | 1.42 ± 0.226 folds |  | [Ca^2+]i increase (in words) ([1]; dHL60 cells, 1 μM): did not affect |
| O=C1O/C(=C/Br)CCC1c1cccc2ccccc12 (stereo not shown) [BEL, reference compound] |  |  |  | Inhibition of AA release induced by P14, P18, P21, P24 [2]: did not interfere |
| RKYYVM-NH2 [Peptide P17] | 143 ± 10.2 nM | 2.82 ± 0.210 folds | most potent | Superoxide generation (in words) [3]: stimulate superoxide generation in a concentration-dependent manner; Concentration of maximal activity, [Ca^2+]i increase ([1]; dHL60 cells): approximately 3 μM; Cellular chemotaxis in human monocytes (in words) [5]: induced cellular chemotaxis |
| MKYYVM-NH2 [Peptide P23] | 153 ± 13.2 nM | 3.05 ± 0.401 folds | most potent | Concentration of maximal activity, [Ca^2+]i increase ([1]; dHL60 cells): approximately 3 μM |
| KKYYYM-NH2 [Peptide P12] | 153 ± 13.2 nM | 2.58 ± 0.168 folds | most potent | Concentration of maximal activity, [Ca^2+]i increase ([1]; dHL60 cells): approximately 3 μM |
